Assay results as given in patent publication US12544395B2, “Combination compositions comprising a beta-lactamase inhibitor and uses thereof” (priority 2018, dated 2026).

Assays:
K. pneumoniae ESBL 8 #1 = assay: Broth microdilution MIC (strain enzymes: TEM-1, SHV-12); type: cell-based; conditions: with inhibitor at 4 μg/mL
K. pneumoniae ESBL 8 #2 = assay: Broth microdilution MIC (strain enzymes: SHV-12, TEM-1); type: cell-based
K. pneumoniae KPN 508 = assay: Broth microdilution MIC (strain enzymes: SHV-7, TEM-1); type: cell-based
K. pneumoniae SI-KP NO30 = assay: Broth microdilution MIC (strain enzymes: TEM-26b, SHV-60, SHV-26); type: cell-based
K. pneumoniae BAA 1705 = assay: Broth microdilution MIC (strain KPC-producing); type: cell-based
[1] = system: E. coli expressing TEM-1+CTX-M-15, CTX-M-15, and KPC-2+SHV-12; assay: Murine ascending UTI model, three strains; type: in vivo, mice; conditions: added to ceftibuten at 3, 10, 30, 100, and 300 mg/kg, SC every 12 hours for 3 days
[2] = system: 21 strains of Enterobacteriaceae expressing various beta-lactamases; assay: MIC testing of thigh model strains; type: cell-based; conditions: with Compound 2 fixed at 4 mg/L

SMILES: CCC(=O)N[C@H]1Cc2cccc(C(=O)O)c2OB1O [Compound 2, (R)-2-hydroxy-3-propionamido-3,4-dihydro-2H-benzo[e][1,2]oxaborinine-8-carboxylic acid]
- MIC of cefalexin (LEX) (K. pneumoniae ESBL 8 #1): 0.25 µg/mL
- MIC of cefdinir (CDR) (K. pneumoniae ESBL 8 #1): 0.25 µg/mL
- MIC of cefixime (CFM) (K. pneumoniae ESBL 8 #1): 0.25 µg/mL
- MIC of ceftibuten (CTB) (K. pneumoniae ESBL 8 #1): 0.06 µg/mL
- MIC of cefalexin (LEX) (K. pneumoniae ESBL 8 #2; with inhibitor at 1 μg/mL): 0.5 µg/mL
- MIC of cefdinir (CDR) (K. pneumoniae ESBL 8 #2; with inhibitor at 1 μg/mL): 0.5 µg/mL
- MIC of cefixime (CFM) (K. pneumoniae ESBL 8 #2; with inhibitor at 1 μg/mL): 2 µg/mL
- MIC of ceftibuten (CTB) (K. pneumoniae ESBL 8 #2; with inhibitor at 1 μg/mL): 0.125 µg/mL
- MIC of cefalexin (LEX) (K. pneumoniae ESBL 8 #2; with inhibitor at 2 μg/mL): 0.25 µg/mL
- MIC of cefdinir (CDR) (K. pneumoniae ESBL 8 #2; with inhibitor at 2 μg/mL): 0.25 µg/mL
- MIC of cefixime (CFM) (K. pneumoniae ESBL 8 #2; with inhibitor at 2 μg/mL): 1 µg/mL
- MIC of ceftibuten (CTB) (K. pneumoniae ESBL 8 #2; with inhibitor at 2 μg/mL): 0.125 µg/mL
- MIC of cefalexin (LEX) (K. pneumoniae ESBL 8 #2; with inhibitor at 4 μg/mL): 0.25 µg/mL
- MIC of cefdinir (CDR) (K. pneumoniae ESBL 8 #2; with inhibitor at 4 μg/mL): 0.25 µg/mL
- MIC of cefixime (CFM) (K. pneumoniae ESBL 8 #2; with inhibitor at 4 μg/mL): 0.5 µg/mL
- MIC of ceftibuten (CTB) (K. pneumoniae ESBL 8 #2; with inhibitor at 4 μg/mL): 0.06 µg/mL
- MIC of cefalexin (LEX) (K. pneumoniae KPN 508; with inhibitor at 1 μg/mL): 0.5 µg/mL
- MIC of cefdinir (CDR) (K. pneumoniae KPN 508; with inhibitor at 1 μg/mL): 0.5 µg/mL
- MIC of cefixime (CFM) (K. pneumoniae KPN 508; with inhibitor at 1 μg/mL): 4 µg/mL
- MIC of ceftibuten (CTB) (K. pneumoniae KPN 508; with inhibitor at 1 μg/mL): 0.125 µg/mL
- MIC of cefalexin (LEX) (K. pneumoniae KPN 508; with inhibitor at 2 μg/mL): 0.25 µg/mL
- MIC of cefdinir (CDR) (K. pneumoniae KPN 508; with inhibitor at 2 μg/mL): 0.25 µg/mL
- MIC of cefixime (CFM) (K. pneumoniae KPN 508; with inhibitor at 2 μg/mL): 1 µg/mL
- MIC of ceftibuten (CTB) (K. pneumoniae KPN 508; with inhibitor at 2 μg/mL): 0.125 µg/mL
- MIC of cefalexin (LEX) (K. pneumoniae KPN 508; with inhibitor at 4 μg/mL): 0.5 µg/mL
- MIC of cefdinir (CDR) (K. pneumoniae KPN 508; with inhibitor at 4 μg/mL): 0.5 µg/mL
- MIC of cefixime (CFM) (K. pneumoniae KPN 508; with inhibitor at 4 μg/mL): 0.5 µg/mL
- MIC of ceftibuten (CTB) (K. pneumoniae KPN 508; with inhibitor at 4 μg/mL): 0.06 µg/mL
- MIC of cefalexin (LEX) (K. pneumoniae SI-KP NO30; with inhibitor at 1 μg/mL): 0.125 µg/mL
- MIC of cefdinir (CDR) (K. pneumoniae SI-KP NO30; with inhibitor at 1 μg/mL): 0.125 µg/mL
- MIC of cefixime (CFM) (K. pneumoniae SI-KP NO30; with inhibitor at 1 μg/mL): 0.5 µg/mL
- MIC of ceftibuten (CTB) (K. pneumoniae SI-KP NO30; with inhibitor at 1 μg/mL): 0.06 µg/mL
- MIC of cefalexin (LEX) (K. pneumoniae SI-KP NO30; with inhibitor at 2 μg/mL): 0.25 µg/mL
- MIC of cefdinir (CDR) (K. pneumoniae SI-KP NO30; with inhibitor at 2 μg/mL): 0.25 µg/mL
- MIC of cefixime (CFM) (K. pneumoniae SI-KP NO30; with inhibitor at 2 μg/mL): 0.25 µg/mL
- MIC of ceftibuten (CTB) (K. pneumoniae SI-KP NO30; with inhibitor at 2 μg/mL): 0.06 µg/mL
- MIC of cefalexin (LEX) (K. pneumoniae SI-KP NO30; with inhibitor at 4 μg/mL): 0.125 µg/mL
- MIC of cefdinir (CDR) (K. pneumoniae SI-KP NO30; with inhibitor at 4 μg/mL): 0.125 µg/mL
- MIC of cefixime (CFM) (K. pneumoniae SI-KP NO30; with inhibitor at 4 μg/mL): 0.25 µg/mL
- MIC of ceftibuten (CTB) (K. pneumoniae SI-KP NO30; with inhibitor at 4 μg/mL): 0.06 µg/mL
- MIC of cefalexin (LEX) (K. pneumoniae BAA 1705; with inhibitor at 1 μg/mL): 4 µg/mL
- MIC of cefdinir (CDR) (K. pneumoniae BAA 1705; with inhibitor at 1 μg/mL): 4 µg/mL
- MIC of cefixime (CFM) (K. pneumoniae BAA 1705; with inhibitor at 1 μg/mL): 0.5 µg/mL
- MIC of ceftibuten (CTB) (K. pneumoniae BAA 1705; with inhibitor at 1 μg/mL): 0.5 µg/mL
- MIC of cefalexin (LEX) (K. pneumoniae BAA 1705; with inhibitor at 2 μg/mL): 2 µg/mL
- MIC of cefdinir (CDR) (K. pneumoniae BAA 1705; with inhibitor at 2 μg/mL): 2 µg/mL
- MIC of cefixime (CFM) (K. pneumoniae BAA 1705; with inhibitor at 2 μg/mL): 0.5 µg/mL
- MIC of ceftibuten (CTB) (K. pneumoniae BAA 1705; with inhibitor at 2 μg/mL): 0.5 µg/mL
- MIC of cefalexin (LEX) (K. pneumoniae BAA 1705; with inhibitor at 4 μg/mL): 1 µg/mL
- MIC of cefdinir (CDR) (K. pneumoniae BAA 1705; with inhibitor at 4 μg/mL): 1 µg/mL
- MIC of cefixime (CFM) (K. pneumoniae BAA 1705; with inhibitor at 4 μg/mL): 0.25 µg/mL
- MIC of ceftibuten (CTB) (K. pneumoniae BAA 1705; with inhibitor at 4 μg/mL): 0.25 µg/mL
- bacterial titers lower than ceftibuten alone, bladders [1]: 3.2 log10 CFU/g
- bacterial titers lower than ceftibuten alone, urine [1]: up to 4 log10 CFU/mL
- ceftibuten MICs [2]: ≤ 2 µg/mL
